Measured values reported in patent publication US11046699B2, “Pyrazolo-pyrimidin-amino-cycloalkyl compounds and their therapeutic uses” (RAPT THERAPEUTICS, INC., priority 2018, dated 2021).
Read-outs that look alike come from different tables or passages of the source.

Target: GCN2 (Homo sapiens, UniProt Q9P2K8)
Assay: GCN2 enzymatic endpoint assay: phosphorylation of GFP-eIF2α measured by TR-FRET (Lanthascreen)
Format: biochemical
Method in brief: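 Endpoint GCN2 reaction with low ATP (2 μM) and 80 nM GFP-eIF2α, room temperature, 90 minutes. Detection mix with EDTA and Tb-labelled antibody; 520 nm/495 nm emission ratio reported.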

[1] = tested as described in Example 77, compound and/or hydrochloride, dihydrochloride or trifluoroacetic acid salt, read-out: IC 50 Activity
[2] = GCN2 biochemical IC50, 4 nM GCN2, 2 μM ATP, 80 nM GFP-eIF2α, 90 min RT, read-out: GCN2 activity

Chain of GCN2 (Q9P2K8 whole entry): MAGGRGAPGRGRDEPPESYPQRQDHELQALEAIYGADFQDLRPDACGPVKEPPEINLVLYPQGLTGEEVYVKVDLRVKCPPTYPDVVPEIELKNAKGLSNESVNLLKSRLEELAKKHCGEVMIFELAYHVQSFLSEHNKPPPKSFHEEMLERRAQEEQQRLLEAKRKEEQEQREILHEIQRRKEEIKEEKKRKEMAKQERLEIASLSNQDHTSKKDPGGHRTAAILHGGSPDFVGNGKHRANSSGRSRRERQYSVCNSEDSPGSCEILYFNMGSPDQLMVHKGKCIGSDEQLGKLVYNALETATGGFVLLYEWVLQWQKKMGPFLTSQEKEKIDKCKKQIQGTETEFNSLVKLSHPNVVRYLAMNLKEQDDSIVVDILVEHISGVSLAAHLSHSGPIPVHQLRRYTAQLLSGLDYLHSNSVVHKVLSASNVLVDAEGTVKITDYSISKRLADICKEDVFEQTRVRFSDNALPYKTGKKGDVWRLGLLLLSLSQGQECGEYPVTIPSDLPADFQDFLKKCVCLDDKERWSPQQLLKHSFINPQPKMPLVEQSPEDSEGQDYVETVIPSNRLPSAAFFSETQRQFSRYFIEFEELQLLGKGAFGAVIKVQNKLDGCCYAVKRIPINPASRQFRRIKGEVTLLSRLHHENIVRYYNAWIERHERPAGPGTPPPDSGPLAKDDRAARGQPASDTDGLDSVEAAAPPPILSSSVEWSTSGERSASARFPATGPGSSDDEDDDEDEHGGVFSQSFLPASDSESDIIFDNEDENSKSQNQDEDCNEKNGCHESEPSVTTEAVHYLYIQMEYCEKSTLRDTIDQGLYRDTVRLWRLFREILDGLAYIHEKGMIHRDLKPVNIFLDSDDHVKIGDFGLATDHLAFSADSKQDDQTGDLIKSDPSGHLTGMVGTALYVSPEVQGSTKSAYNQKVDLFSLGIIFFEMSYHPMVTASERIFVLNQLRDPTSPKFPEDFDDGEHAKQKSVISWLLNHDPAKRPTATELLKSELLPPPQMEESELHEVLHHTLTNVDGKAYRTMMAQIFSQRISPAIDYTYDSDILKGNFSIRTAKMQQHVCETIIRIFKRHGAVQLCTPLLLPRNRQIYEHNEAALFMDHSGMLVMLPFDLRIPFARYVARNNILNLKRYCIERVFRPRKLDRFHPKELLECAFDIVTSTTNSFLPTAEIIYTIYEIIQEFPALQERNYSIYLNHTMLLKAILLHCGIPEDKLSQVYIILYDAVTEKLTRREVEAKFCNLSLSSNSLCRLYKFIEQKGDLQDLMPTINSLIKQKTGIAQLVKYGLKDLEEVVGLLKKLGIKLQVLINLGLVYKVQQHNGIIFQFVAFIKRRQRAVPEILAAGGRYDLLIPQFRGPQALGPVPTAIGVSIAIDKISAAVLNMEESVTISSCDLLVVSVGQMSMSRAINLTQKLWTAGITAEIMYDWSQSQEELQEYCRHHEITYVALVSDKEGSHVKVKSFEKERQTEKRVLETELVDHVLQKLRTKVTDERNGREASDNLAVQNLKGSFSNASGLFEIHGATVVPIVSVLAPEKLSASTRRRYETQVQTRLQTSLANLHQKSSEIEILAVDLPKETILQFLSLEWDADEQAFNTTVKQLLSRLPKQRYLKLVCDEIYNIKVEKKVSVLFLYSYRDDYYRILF

Row | SMILES | IC50 [1] [µM] | IC50 [2] [µM]
1 | CNC(=O)[C@]1(C)CC[C@@H](Nc2ncc3c(Br)nn(-c4ccc(-n5ccnc5)cc4)c3n2)C1 [(1R,3R)-3-[[3-bromo-1-(4-imidazol-1-ylphenyl)pyrazolo[3,4-d]pyrimidin-6-yl]amino]-N,1-dimethyl-cyclo-pentanecarboxamide] | 0.025 to 0.2 | –
2 | C[C@H](N)c1cc(Cl)cc(-n2nc(Br)c3cnc(N[C@@H]4CC[C@@](C)(O)C4)nc32)c1 [Example 75, (1R,3R)-3-((1-(3-((S)-1-aminoethyl)-5-chlorophenyl)-3-bromo-1H-pyrazolo[3,4-d]pyrimidin-6-yl)amino)-1-methylcyclopentan-1-ol] | – | 0.025 to 0.2
3 | C[C@@]1(C(=O)N2CCN3C(=O)COCC3C2)CC[C@@H](Nc2ncc3c(Br)nn(-c4cc(F)c5ncccc5c4)c3n2)C1 (stereo partly drawn) [8-[(1R,3R)-3-[[3-bromo-1-(8-fluoro-6-quinolyl)pyrazolo[3,4-d]pyrimidin-6-yl]amino]-1-methyl-cyclopentane-carbonyl]-6,7,9,9a-tetrahydro-1H-pyrazino[2,1-c][1,4]oxazin-4-one] | 0.025 to 0.2 | –
4 | Cc1nnc(-c2ccc(-n3nc(Br)c4cnc(N[C@@H]5CC[C@@](C)(C(=O)NCC(F)F)C5)nc43)cc2)s1 [(1R,3R)-3-[[3-bromo-1-[4-(5-methyl-1,3,4-thiadiazol-2-yl)phenyl]pyrazolo [3,4-d]pyrimidin-6-yl]amino]-N-(2,2-difluoroethyl)-1-methyl-cyclopentane-carboxamide] | 0.025 to 0.2 | –
5 | O=C(NCCn1ccnc1)[C@@H]1CC[C@@H](Nc2ncc3c(Br)nn(-c4ccc5ncccc5c4)c3n2)C1 [(1R,3R)-N-(2-(1H-imidazol-1-yl)ethyl)-3-((3-bromo-1-(quinolin-6-yl)-1H-pyrazolo[3,4-d]pyrimidin-6-yl)amino)cyclopentane-1-carboxamide] | 0.025 to 0.2 | –
6 | Cc1nnc(-c2ccc(-n3nc(Br)c4cnc(N[C@@H]5CC[C@@H](C(=O)N6CCNC(=O)C6)C5)nc43)cc2)o1 [Example 22, 4-((1R,3R)-3-((3-bromo-1-(4-(5-methyl-1,3,4-oxadiazol-2-yl)phenyl)-1H-pyrazolo[3,4-d]pyrimidin-6-yl)amino)cyclopentane-1-carbonyl)piperazin-2-one] | – | 0.025 to 0.2
7 | CNC(=O)[C@@H]1CC[C@@H](Nc2ncc3c(Br)nn(-c4ccc(-c5nnn[nH]5)cc4)c3n2)C1 [(1R,3R)-3-((1-(4-(1H-tetrazol-5-yl)phenyl)-3-bromo-1H-pyrazolo[3,4-d]pyrimidin-6-yl)amino)-N-methylcyclopentane-1-carboxamide] | 0.025 to 0.2 | –
8 | COCCNC(=O)[C@@H]1CC[C@@H](Nc2ncc3c(Br)nn(-c4ccc5nccnc5c4)c3n2)C1 [(1R,3R)-3-((3-bromo-1-(quinoxalin-6-yl)-1H-pyrazolo[3,4-d]pyrimidin-6-yl)amino)-N-(2-methoxyethyl)cyclopentane-1-carboxamide] | 0.025 to 0.2 | –
9 | CNC(=O)C1(C(C)C#N)CC[C@@H](Nc2ncc3c(Br)nn(-c4ccc(-c5nnc(C)s5)cc4)c3n2)C1 (stereo partly drawn) | 0.025 to 0.2 | –
10 | Cc1nnc(-c2ccc(-n3nc(Br)c4cnc(N[C@@H]5CC[C@H](P(C)(C)=O)C5)nc43)cc2)s1 [3-bromo-N-[(1R,3S)-3-dimethylphosphoryl-cyclopentyl]-1-[4-(5-methyl-1,3,4-thiadiazol-2-yl)phenyl]pyrazolo[3,4-d]pyrimidin-6-amine] | 0.025 to 0.2 | –
11 | C[C@@H]1CN(C(=O)C2(C)CC[C@@H](Nc3ncc4c(Br)nn(-c5cc(F)c6ncccc6c5)c4n3)C2)C[C@@H](C)O1 (stereo partly drawn) [[(3R)-3-[[3-bromo-1-(8-fluoro-6-quinolyl)pyrazolo[3,4-d]pyrimidin-6-yl]amino]-1-methyl-cyclopentyl]-[(2R,6R)-2,6-dimethylmorpholin-4-yl]methanone] | 0.025 to 0.2 | –
12 | CNC(=O)[C@]1(C)CC[C@@H](Nc2ncc3c(Br)nn(-c4ccc5nc(N(C)C)ncc5c4)c3n2)C1 | 0.025 to 0.2 | –
13 | CNC(=O)[C@]1(C)CC[C@@H](Nc2ncc3c(Br)nn(-c4cc(CN5CCCS5(=O)=O)c5ncccc5c4)c3n2)C1 [(1R,3R)-3-[[3-bromo-1-[8-[(1,1-dioxo-1,2-thiazolidin-2-yl)methyl]-6-quinolyl]pyrazolo[3,4-d]pyrimidin-6-yl]amino]-N,1-dimethyl-cyclopentanecarboxamide] | 0.025 to 0.2 | –
14 | CNC(=O)[C@]1(C)CC[C@@H](Nc2ncc3c(Br)nn(-c4cc(F)c5nc(C)cc(O)c5c4)c3n2)C1 [(1R,3R)-3-[[3-bromo-1-(8-fluoro-4-hydroxy-2-methyl-6-quinolyl)pyrazolo[3,4-d]pyrimidin-6-yl]amino]-N,1-dimethyl-cyclopentanecarboxamide] | 0.025 to 0.2 | –
15 | CCNC(=O)[C@@H]1CC[C@@H](Nc2ncc3c(Br)nn(-c4cc(F)c5ncccc5c4)c3n2)C1 [(1R,3R)-3-[[3-bromo-1-(8-fluoro-6-quinolyl)pyrazolo[3,4-d]pyrimidin-6-yl]amino]-N-ethyl-cyclopentanecarboxamide] | 0.025 to 0.2 | –
16 | CNC(=O)[C@]1(F)CC[C@@H](Nc2ncc3c(Br)nn(-c4cc(F)c5ncccc5c4)c3n2)C1 [(1S,3R)-3-[[3-bromo-1-(8-fluoro-6-quinolyl)pyrazolo[3,4-d]pyrimidin-6-yl]amino]-1-fluoro-N-methyl-cyclopentanecarboxamide] | 0.025 to 0.2 | –
17 | CNC(=O)[C@]1(C)CC[C@@H](Nc2ncc3c(Br)nn(-c4cc(Cl)cc(C(=O)N(C)C5CNC5)c4)c3n2)C1 [N-(azetidin-3-yl)-3-[3-bromo-6-[[(1R,3R)-3-methyl-3-(methylcarbamoyl)cyclopentyl]amino]pyrazolo[3,4-d]pyrimidin-1-yl]-5-chloro-N-methyl-benzamide] | 0.025 to 0.2 | –

Second part, the compound after the results:

Row | IC50 [1] [µM] | IC50 [2] [µM] | SMILES
18 | 0.025 to 0.2 | – | Cc1nnc(-c2ccc(-n3nc(Br)c4cnc(N[C@@H]5CC[C@@H](C(=O)N6CCN(C)C(=O)C6)C5)nc43)cc2F)o1 [4-((1R,3R)-3-((3-bromo-1-(3-fluoro-4-(5-methyl-1,3,4-oxadiazol-2-yl)phenyl)-1H-pyrazolo[3,4-d]pyrimidin-6-yl)amino)cyclo-pentane-1-carbonyl)-1-methylpiperazin-2-one]
19 | 0.025 to 0.2 | – | N#CCN1CCN(C(=O)[C@@H]2CC[C@@H](Nc3ncc4c(Br)nn(-c5cc(F)c6ncccc6c5)c4n3)C2)CC1 [2-[4-[(1R,3R)-3-[[3-bromo-1-(8-fluoro-6-quinolyl)pyrazolo[3,4-d]pyrimidin-6-yl]amino]cyclopentanecarbonyl]piperazin-1-yl]acetonitrile]
20 | 0.025 to 0.2 | – | CN(C)S(=O)(=O)C1CC[C@@H](Nc2ncc3c(Br)nn(-c4cc(F)c5ncccc5c4)c3n2)C1 (stereo partly drawn) [(3R)-3-((3-bromo-1-(8-fluoroquinolin-6-yl)-1H-pyrazolo[3,4-d]pyrimidin-6-yl)amino)-N,N-dimethylcyclopentane-1-sulfonamide]
21 | 0.025 to 0.2 | – | CNC(=O)[C@]1(C)CC[C@@H](Nc2ncc3c(Br)nn(-c4cc(F)c5ncc(C(C)(C)N)cc5c4)c3n2)C1 [(1R,3R)-3-[[1-[3-(1-amino-1-methyl-ethyl)-8-fluoro-6-quinolyl]-3-bromo-pyrazolo [3,4-d]pyrimidin-6-yl]amino]-N,1-dimethyl-cyclopentanecarboxamide]
22 | 0.025 to 0.2 | – | CNC(=O)[C@]1(C)CC[C@@H](Nc2ncc3c(Br)nn(-c4cc(Cl)cc(C(=O)N5CCNCC5)c4)c3n2)C1 [(1R,3R)-3-[[3-bromo-1-[3-chloro-5-(piperazine-1-carbonyl)phenyl]pyrazolo [3,4-d]pyrimidin-6-yl]amino]-N,1-dimethyl-cyclopentanecarboxamide]
23 | 0.025 to 0.2 | – | CNC(=O)[C@]1(C)CC[C@@H](Nc2ncc3c(Br)nn(-c4cc(CN)c5nccnc5c4)c3n2)C1 [(1R,3R)-3-[[1-[8-(aminomethyl)quinoxalin-6-yl]-3-bromo-pyrazolo[3,4-d]pyrimidin-6-yl]amino]-N,1-dimethyl-cyclopentane-carboxamide]
24 | 0.025 to 0.2 | – | CNC(=O)[C@]1(C)CC[C@@H](Nc2ncc3c(Br)nn(-c4cc(CCCOC)c5c(c4)CCC(=O)N5C)c3n2)C1 [(1R,3R)-3-[[3-bromo-1-[8-(3-methoxy-propyl)-1-methyl-2-oxo-3,4-dihydro-quinolin-6-yl]pyrazolo[3,4-d]pyrimidin-6-yl]amino]-N,1-dimethyl-cyclopentane-carboxamide; 2,2,2-trifluoroacetic acid]
25 | < 0.025 | – | CN1CN(C(=O)[C@]2(C)CC[C@@H](Nc3ncc4c(Br)nn(-c5cc(F)c6ncccc6c5)c4n3)C2)CC1=O [1-[(1R,3R)-3-[[3-bromo-1-(8-fluoro-6-quinolyl)pyrazolo[3,4-d]pyrimidin-6-yl]amino]-1-methyl-cyclopentanecarbonyl]-3-methyl-imidazolidin-4-one]
26 | < 0.025 | – | CC1N(C)C(=O)CN1C(=O)[C@@H]1CC[C@@H](Nc2ncc3c(Br)nn(-c4cc(F)c5ncccc5c4)c3n2)C1 (mixture of isomers)
27 | < 0.025 | – | COCCN1CN(C(=O)C2(C)CC[C@@H](Nc3ncc4c(Br)nn(-c5cc(F)c6ncccc6c5)c4n3)C2)CC1=O (stereo partly drawn) [1-[(3R)-3-[[3-bromo-1-(8-fluoro-6-quinolyl)pyrazolo[3,4-d]pyrimidin-6-yl]amino]-1-methyl-cyclopentanecarbonyl]-3-(2-methoxyethyl)imidazolidin-4-one]
28 | < 0.025 | – | CC1(C(=O)N2CCNCC2)CC[C@@H](Nc2ncc3c(Br)nn(-c4cc(F)c5ncccc5c4)c3n2)C1 (stereo partly drawn) [[(3R)-3-[[3-bromo-1-(8-fluoro-6-quinolyl)pyrazolo[3,4-d]pyrimidin-6-yl]amino]-1-methyl-cyclopentyl]-piperazin-1-yl-methanone]
29 | < 0.025 | – | N#Cc1cc(-n2nc(Br)c3cnc(N[C@@H]4CC[C@@H](C(=O)NC[C@@H]5COCCN5)C4)nc32)cc2cccnc12 [(1R,3R)-3-((3-bromo-1-(8-cyanoquinolin-6-yl)-1H-pyrazolo[3,4-d]pyrimidin-6-yl)amino)-N-(((R)-morpholin-3-yl)methyl)cyclopentane-1-carboxamide]
30 | < 0.025 | – | CNC(=O)[C@]1(C)CC[C@@H](Nc2ncc3c(Br)nn(-c4ccc(-c5ncco5)c(NC(=O)C5CCNCC5)c4)c3n2)C1 [N-[5-[3-bromo-6-[[(1R,3R)-3-methyl-3-(methylcarbamoyl)cyclopentyl]amino]pyrazolo[3,4-d]pyrimidin-1-yl]-2-oxazol-2-yl-phenyl]piperidine-4-carboxamide]
